From patent publication US11673927B2, “Antitumor agent targeting HGF-regulated tyrosine kinase substrate (HGS)” (TOKYO METROPOLITAN INSTITUTE OF MEDICAL SCIENCE, priority 2018, dated 2023) come the findings set out here.

Assay [1] concerns mouse melanoma B16 cells. The assay is described as follows: In vitro anchorage-independent growth inhibition test (ULAS plate), B16. The assay is classed as cell-based. The note with it: ULAS plate, 0, 0.16, 0.4, 8 nmol, 7 days, FIG. 2A. The source says: (§1) Cancer cells proliferate in an anchorage-independent manner, and normal cells proliferate in an anchorage-dependent manner.
(§2) In the present example, the Ultra-Low Attachment Surface Corning Costar 96 Well Cell Culture Plate 3474 (Corning) was used as an Ultra-Low Attachment Surface (ULAS) plate, and Tissue Culture Treated Corning Costar 96 Well Cell Culture Plate 3595 (Corning) was used as a normal plate.
(§3) As cells, mouse melanoma B16 cells and human colorectal cancer-derived COLO 205 cells were used, and Cell Counting Kit-8 (Dojindo Laboratories) was used to evaluate cell growth.
(§4) B16 cells or COLO 205 cells (2E+3 cells/0.2 ml Opti-MEM medium, 5% FBS/well) were seeded in each well of the ULAS plate and normal plate. The test oligopeptides (OP12-462, OP10-507 and OP10-527) (0, 0.16, 0.4, 8 nmol) were each added and cultured at 37° C.
(§5) After 7 days, 0.1 ml of Cell Counting Kit-8 solution (5-fold PBS diluted solution) was added, and the absorbance A450 nm was immediately measured and set as the TO blank value.
(§6) After incubating at 37° C. for 2 hours, the absorbance A450 nm was measured again and set as T2. The change=T2−T0 was defined as the anchorage-independent growth activity value or the anchorage-dependent growth activity value. The cell growth activity when adding a test oligopeptide was quantified as the relative ratio to the cell growth activity when no test oligopeptide was added.

Assay [2] has as its system human colorectal cancer-derived COLO 205 cells. Put plainly: In vitro anchorage-independent growth inhibition test (ULAS plate), COLO 205. The note with it: ULAS plate, 0, 0.16, 0.4, 8 nmol, 7 days, FIG. 2B. Format: cell-based.
From the text: as §1, §2, §3, §4, §5, §6

Assay [3] has as its target T1, GST-labeled STAM (Human) Recombinant Protein (Homo sapiens, UniProt Q92783).
T1 construct: purchased Abnova
T1 sequence (Q92783 1-540): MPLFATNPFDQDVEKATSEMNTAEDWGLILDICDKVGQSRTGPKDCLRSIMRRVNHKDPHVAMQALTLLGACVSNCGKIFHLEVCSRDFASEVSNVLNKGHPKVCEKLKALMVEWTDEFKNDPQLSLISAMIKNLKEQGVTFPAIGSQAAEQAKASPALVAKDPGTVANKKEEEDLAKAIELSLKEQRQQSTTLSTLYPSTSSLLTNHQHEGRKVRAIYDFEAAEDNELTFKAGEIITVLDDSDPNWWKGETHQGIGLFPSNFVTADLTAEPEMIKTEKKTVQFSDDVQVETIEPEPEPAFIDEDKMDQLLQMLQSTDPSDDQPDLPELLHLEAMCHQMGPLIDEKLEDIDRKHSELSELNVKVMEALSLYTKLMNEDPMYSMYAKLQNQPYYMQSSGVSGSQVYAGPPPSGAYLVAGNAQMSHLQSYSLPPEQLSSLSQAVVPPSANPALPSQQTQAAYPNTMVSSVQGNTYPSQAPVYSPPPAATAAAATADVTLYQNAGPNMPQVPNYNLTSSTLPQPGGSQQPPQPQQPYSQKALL
The assay is described as follows: SPR interaction screening with immobilized GST-labeled STAM. As to conditions: ProteOn XPR36, GST value as blank. Format: binding. The protocol:
(§7) Specifically, Glutathione S-transferase (GST)-labeled HGS (Human) Recombinant Protein (Abnova), GST-labeled STAM (Human) Recombinant Protein (Abnova), or GST (Abnova) was immobilized on a ProteOn™ GLH sensor chip.
(§8) The interactions between the HGS/C constituent oligopeptides and these immobilized proteins were measured using the ProteOn™ XPR36 interaction array system (Bio-Rad). Using the GST value as a blank value, the dissociation rate constants (Kd) of the HGS/C-constituent oligopeptides with each of GST-labeled HGS and GST-labeled STAM were measured.

The next assay deals with COLO 205 cells. The assay is described as follows: In vivo Xenograft test. Also on record: species or system BALB/c Slc-nu/nu nude mice. As to conditions: for tumor growth of COLO 205 cells (tumor volume): nude mice, 5 mg/kg body weight, tail vein, once daily Day 0 to Day 9, versus PBS; for tumor growth inhibitory effect compared with OP12-462, OP10-507 and OP10-527: COLO 205 xenograft, same method as Example 2 1.(2), FIGS. 6A to 6C. The protocol: COLO 205 cells (1E+6 cells/0.2 ml PBS) were inoculated subcutaneously into the back of BALB/c Slc-nu/nu nude mice (female) (n=5 or 6). The day after 10 days was set as Day 0, and PBS or the test oligopeptides (OP12-462, OP10-507 and OP10-527) (5 mg/kg body weight) was administered as a 0.2 ml PBS solution in the tail vein once daily for 10 days from Day 0 to Day 9. The size of the tumor formed was measured once daily from Day 0. The tumor volume was estimated by measuring the minor axis and major axis of the tumor (tumor volume=(semi-minor axis×semi-minor axis×semi-major axis×π)/6).
With the same method as in the above “[Example 2] 1. (2)”, the tumor growth inhibitory ability was evaluated for OP10-7, OP10-10 and OP10-11, which are typical examples of conventional HGS/C constituent oligopeptides.

Assay [4] addresses T2, GST-labeled HGS (Human) Recombinant Protein (Homo sapiens, UniProt O14964).
T2 construct: purchased Abnova
The assay is described as follows: SPR interaction screening with immobilized GST-labeled HGS. Format: binding. The note with it: ProteOn XPR36, GST value as blank. The protocol: as §7, §8

Assay [5] concerns mouse melanoma B16 cells. Put plainly: Experimental lung metastasis inhibition test. The assay is classed as in vivo, C57BL/6 mice. The note with it: B16 cells incubated with 40 nmol oligopeptide 2 hours, tail vein, colonies counted after 28 days, versus vehicle. The protocol: The metastasis inhibitory effect of OP12-462 on the experimental lung metastasizing ability of mouse melanoma B16 cells was examined.
First, a PBS solution (0.2 ml PBS) of mouse melanoma B16 cells (1E+5 cells) and the test oligopeptide (OP12-462) (40 nmol) was incubated at 37° C. for 2 hours. After incubation, this solution was administered to C57BL/6 mice (female) in the tail vein. The number of B16 cell metastatic tumor colonies in the mouse lung was counted 28 days after the tail vein administration of B16 cells. The ability of the oligopeptide OP12-462 to inhibit metastasis was quantified as the relative ratio of the number of the tumor colonies treated with the oligopeptide to the number of tumor colonies of B16 cells untreated with the oligopeptide.
As was in the above “1. (3)”, an experimental lung metastasis inhibition test was conducted on the oligopeptide OP12-462 and the OP12-462 alanine substituted peptides.

The subject of assay [6] is mouse melanoma B16 cells. The assay is described as follows: In vitro anchorage-dependent growth inhibition test (normal plate), B16. The assay is classed as cell-based. The note with it: normal plate, 0, 0.16, 0.4, 8 nmol, 7 days, FIG. 2A.
From the text: as §1, §2, §3, §4, §5, §6

The test system of assay [7] is human colorectal cancer-derived COLO 205 cells. The assay is described as follows: In vitro anchorage-dependent growth inhibition test (normal plate), COLO 205. The assay is classed as cell-based. As to conditions: normal plate, 0, 0.16, 0.4, 8 nmol, 7 days, FIG. 2B.
From the text: as §1, §2, §3, §4, §5, §6

Assay [8] concerns B16 cells or COLO 205 cells. The assay is described as follows: In vitro anchorage-independent growth inhibition test of OP12-462 alanine substituted peptides. The note with it: compared with the sample untreated with an oligopeptide (vehicle) or with OP12-462, FIG. 5. The assay is classed as cell-based.
From the text: as §2, §3, §4, §5, §6
As was in the above “1. […]

T2 sequence (O14964 whole entry): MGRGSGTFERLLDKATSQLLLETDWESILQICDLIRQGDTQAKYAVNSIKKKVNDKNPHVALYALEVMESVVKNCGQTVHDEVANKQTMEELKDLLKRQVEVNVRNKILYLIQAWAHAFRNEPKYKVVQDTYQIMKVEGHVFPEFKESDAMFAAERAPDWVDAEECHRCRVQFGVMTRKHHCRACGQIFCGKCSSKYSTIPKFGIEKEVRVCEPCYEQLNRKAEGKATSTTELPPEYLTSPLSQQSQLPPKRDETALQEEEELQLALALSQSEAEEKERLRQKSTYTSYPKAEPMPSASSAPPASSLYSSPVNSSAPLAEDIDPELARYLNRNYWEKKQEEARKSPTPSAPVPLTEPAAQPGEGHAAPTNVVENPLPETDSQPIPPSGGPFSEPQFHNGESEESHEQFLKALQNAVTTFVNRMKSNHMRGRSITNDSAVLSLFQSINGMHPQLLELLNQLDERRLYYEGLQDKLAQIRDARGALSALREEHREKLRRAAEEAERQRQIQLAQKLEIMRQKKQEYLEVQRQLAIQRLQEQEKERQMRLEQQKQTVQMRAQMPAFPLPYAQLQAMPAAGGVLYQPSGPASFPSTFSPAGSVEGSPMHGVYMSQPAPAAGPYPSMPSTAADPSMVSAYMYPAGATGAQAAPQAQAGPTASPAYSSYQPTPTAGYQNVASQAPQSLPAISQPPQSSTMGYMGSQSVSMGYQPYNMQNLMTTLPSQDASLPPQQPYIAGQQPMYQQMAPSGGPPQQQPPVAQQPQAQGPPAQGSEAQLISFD

As to ERRLYYEGLQDK [OP12-462], the anchorage-independent growth activity result (in the assay on mouse melanoma B16 cells [1]; in assay [2]) was “strongly inhibited” in each case. The “interaction with STAM, dissociation rate constant (Kd) as index” value (shortened to “interaction with STAM … as index”) in assay [3] is reported as “enhanced interaction”. The “tumor growth of COLO 205 cells (tumor volume)” value (“tumor growth of COLO 205 cells” below) in the assay on COLO 205 cells was “statistically significantly inhibited”. In addition, the “interaction with HGS, dissociation rate constant (Kd) as index” value (“interaction with HGS … as index” below) in assay [4] was “enhanced interaction”. In addition, in the assay on mouse melanoma B16 cells [5], the “experimental lung metastasizing ability of mouse melanoma B16 cells (number of lung tumor colonies)” value (“experimental lung metastasizing ability” for short) is “remarkably inhibited”. Also, the anchorage-dependent growth activity result (in the assay on mouse melanoma B16 cells [6]; in [7]) was “did not inhibit at all or hardly inhibited” in each case.
For the sequence ERALYYEGLQDK [OP12-462-A3], the “experimental lung metastasizing ability” value with mouse melanoma B16 cells [5] is listed as “remarkably inhibited”. In [8], the “in vitro anchorage-independent growth” value is listed as “equally to or more than OP12-462”.
For the sequence QIQLAQKLEI [OP10-507], the anchorage-independent growth activity result (in the assay on mouse melanoma B16 cells [1]; in assay [2]) was “strongly inhibited” each time. Further, the “interaction with STAM … as index” value in assay [3] is “strong interaction”. In addition, the “tumor growth of COLO 205 cells” value with COLO 205 cells is recorded as “statistically significantly inhibited”. The “interaction with HGS … as index” value in assay [4] is “strong interaction”. Further, the anchorage-dependent growth activity entry (in the assay on mouse melanoma B16 cells [6]; in assay [7]) was “did not inhibit at all or hardly inhibited” throughout.
With VQRQLAIQRL [OP10-527], the anchorage-independent growth activity result (in the assay with mouse melanoma B16 cells [1]; in assay [2]) was “strongly inhibited” in each case. Moreover, in assay [3], the “interaction with STAM … as index” value is given as “strong interaction”. The “tumor growth of COLO 205 cells” value with COLO 205 cells was “statistically significantly inhibited”. Further, the “interaction with HGS … as index” value in [4] is listed as “strong interaction”. Also, the anchorage-dependent growth activity entry (in the assay with mouse melanoma B16 cells [6]; in assay [7]) was “did not inhibit at all or hardly inhibited” in each case.
With ERRAYYEGLQDK [OP12-462-A4], the “experimental lung metastasizing ability” value in the assay on mouse melanoma B16 cells [5] is on record as “remarkably inhibited”.
Turning to “KLEIMRQKKQ [OP10-10, conventional HGS/C constituent oligopeptide]”, in the assay with COLO 205 cells, the “tumor growth inhibitory effect compared with OP12-462, OP10-507 and OP10-527” value is reported as “remarkably lower”; the “tumor growth of COLO 205 cells” value is given as “a tumor growth inhibitory effect was observed”.
In the case of ERRLYYEGAQDK [OP12-462-A9], the “experimental lung metastasizing ability” value with mouse melanoma B16 cells [5] is “remarkably inhibited”.
Consider “ALSALREEHR [OP10-7, conventional HGS/C constituent oligopeptide]”, for which, in the assay with COLO 205 cells, the “tumor growth inhibitory effect compared with OP12-462, OP10-507 and OP10-527” value is given as “remarkably lower”; the “tumor growth of COLO 205 cells” value is “a tumor growth inhibitory effect was observed”.
As to RRLYYEGLQD [OP10-463], the “interaction with STAM … as index” value in assay [3] is on record as “strong interaction”. Also, in assay [4], the “interaction with HGS … as index” value is on record as “strong interaction”.
Regarding “EYLEVQRQLA [OP10-11, conventional HGS/C constituent oligopeptide]”, in the assay with COLO 205 cells, the “tumor growth inhibitory effect compared with OP12-462, OP10-507 and OP10-527” value is “remarkably lower”; the “tumor growth of COLO 205 cells” value is “a tumor growth inhibitory effect was observed”.
